# Source: PubChem BioAssay AID1902 (Broad Institute, 2009)
# Calls of active or inactive are those of the source.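 How the source made its calls: active means EC50 no more than a set limit of log units above the highest dose; inactive means the rest.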
# Biological target: S. pyogenes SKKanGAS, kanamycin survival, BacTiterGlo, 6 h
# Assay: S. pyogenes SKKanGAS kanamycin growth inhibitors – SKKanGAS strain, luminescence, dose confirmation, streptokinase promoter inhibitor project, dose response (AID 1902);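 further: lower survival reflects blocked streptokinase promoter driving kanamycin resistance gene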
row,SMILES,EC50
1,CC1=NN(c2ccccc2)C(=O)/C1=C/c1c(O)n(-c2ccc(F)c(Cl)c2)[nH]c1=O,3.61 µM
2,Fc1ccccc1N=C1NN=C(c2ccccc2)CS1,8.17 µM
3,Cc1cc(-c2c(C)[nH]n(-c3ccc(Cl)cc3)c2=O)n[nH]1,1.78 µM
4,CC1CCN(c2nc(-c3ccc(F)cc3)cc(C(F)(F)F)n2)CC1,1.71 µM
5,Cc1cc(/C=N/n2cnnc2)c(C)n1-c1ccc(OCc2ccc(Cl)cc2)cc1,6.19 µM
6,C/C(=N\N=C(/N)SC1CC(=O)N(c2ccc(Cl)c(Cl)c2)C1=O)c1cccs1 (centres undefined),2.13 µM
7,O=C(N/N=C/c1cc(Br)cc(Br)c1O)c1ccncc1,0.658 µM
8,O=C(O)c1cccc2c(-c3ccccc3)c(-c3ccccc3)[nH]c12,8.51 µM
9,COC(=O)[C@H]1[C@H](CCc2ccccc2)NC(=O)N(Cc2ccccc2)[C@@H]1C,> 15 µM (inactive)
10,O=C1C(Cl)=C(Nc2ccc3cn[nH]c3c2)C(=O)c2ccccc21,2.21 µM
11,CCCn1nnnc1NC(=O)c1ccc2ccccc2c1,1.01 µM
12,O=C(Nc1nnc(C2=COCCO2)o1)c1cccc(F)c1,2.37 µM
13,CC1CCN(c2nc(-c3ccccc3)cc(C(F)(F)F)n2)CC1,4.58 µM
14,CCN1CCN(C(c2ccc(C(F)(F)F)cc2)c2ccc3cccnc3c2O)CC1 (centres undefined),1.82 µM
15,Cc1[nH]n(-c2cccc3ccccc23)c(=O)c1/C=N/NC(=O)c1cccc([N+](=O)[O-])c1,2.47 µM
16,CCCOc1ccc(C(=O)NC(=S)NNC(=O)c2c(-c3ccccc3)noc2C)cc1,0.274 µM
17,COc1cc2ccccc2cc1C(=O)Nc1ccc(NC(=O)c2cccs2)cc1,6.02 µM
18,Cc1cccc(Cn2nc(C(C)(C)C)cc2C(=O)Nc2ccc(F)cc2)c1,3.95 µM
19,COC(=O)C1CN(C#N)N(c2ccc(Cl)cc2)C12c1ccccc1-c1ccccc12 (centres undefined),4.21 µM
20,Cc1[nH]n(-c2ccc(Cl)cc2)c(=O)c1/C=N/n1c(C)nc2ccccc2c1=O,1.44 µM
21,CCC(=O)NC(c1ccc(C)cc1)c1cc([N+](=O)[O-])c2cccnc2c1O (centres undefined),1.31 µM
22,O=c1[nH]c(CN2CC=C(c3ccccc3)CC2)nc2scc(-c3cccs3)c12,3.87 µM

row,SMILES,EC50
1,CCc1noc(C)c1C(=O)OCC(=O)NC(=O)c1ccccc1,> 15 µM (inactive)
2,N=C1/C(=C\c2ccc(-c3cccc(C(=O)O)c3)o2)C(=O)N=C2SC=C(c3ccccc3)N12,1.2 µM
3,Fc1ccc(CO/N=C/C2=C(Cl)c3ccccc3CC2)cc1,3.96 µM
4,Nc1cc(-c2ccc(OC(F)(F)F)cc2)nn1-c1ccc(Cl)c(Cl)c1,6.17 µM
5,Cc1ccc(C(=O)NNC(=S)NC(=O)c2ccc(Cl)cc2Cl)cc1,0.09 µM
6,Cn1c(SCC(=O)NC2(C#N)CCCCC2)nnc1-c1cccnc1,> 15 µM (inactive)
7,CCC(=O)NC(c1ccc(OC)c(OC)c1)c1cc(Cl)c2cccnc2c1O (centres undefined),5 µM
8,NNc1nc(Nc2ccccc2)nc(Nc2ccccc2)n1,4.04 µM
9,O=C(CN1C(=O)COc2ccc(S(=O)(=O)N3CCCCC3)cc21)NCc1ccc(F)cc1,> 15 µM (inactive)
10,O=C(NCC1(N2CCCCC2)CCCCC1)c1cccc(NS(=O)(=O)c2ccccc2)c1,> 15 µM (inactive)
11,Cc1ccc(-c2cc(-c3cccc(F)c3)n[nH]2)c(O)c1,4.32 µM
12,CCOc1ccc(-n2c(O)c(/C=N/NC(=O)C3COc4ccccc4O3)c3ccccc3c2=O)cc1 (centres undefined),2.34 µM
13,O=[N+]([O-])c1ccc(O)c(N=Cc2sc3ccccc3c2O)c1,2.97 µM
14,Oc1ccccc1C1=NN(c2ccccc2)C(c2ccccc2)C1 (centres undefined),2.76 µM
15,O=C(N/N=C/c1c(O)n(Cc2ccccc2)c(=O)[nH]c1=O)c1ccccc1,8.62 µM
16,Cc1c(C)n(Cc2ccc(F)cc2)c2ccc(C(=O)N3CCN(c4ccccn4)CC3)cc12,6.11 µM
17,O=C(NC(=S)Nc1ccc(N2CCOCC2)c(Cl)c1)c1cccs1,9.89 µM
18,Cc1cccc(NC2=Nc3ccccc3N3C2=Nc2c(c(C)nn2-c2ccccc2)C3c2ccc(O)c(O)c2)c1 (centres undefined),4.54 µM
19,O=C(/C=C/c1ccco1)Oc1cc(Br)cc(/C=N/NC(=O)c2ccccc2O)c1,1.11 µM
20,CCCOc1ccc(/C=C/c2c([N+](=O)[O-])c(=O)n(C)c(=O)n2C)cc1,7.11 µM
21,CN(C)S(=O)(=O)c1ccc(C(=O)Nc2nnc(-c3ccc4c(c3)CCCC4)o2)cc1,0.144 µM
22,COc1ccc(C(=O)NC2CCCCCC2)cc1S(=O)(=O)N1CCOCC1,> 15 µM (inactive)

row,SMILES,EC50
1,O=C(O)c1ccc2c3c(ncnc13)-c1ccccc1C2=O,5.26 µM
2,COc1ccc2oc(C(=O)Nc3nc4ccccc4[nH]3)c(C)c2c1,5.62 µM
3,CCSc1n[nH]c2nc3c(c(=O)n12)C1(CCCC1)Cc1ccccc1-3,3.75 µM
4,O=c1[nH]c2cc3c(cc2cc1CN(CCc1ccccc1)Cc1nnnn1CC1CCCO1)OCO3 (centres undefined),> 15 µM (inactive)
5,CCCCn1c(-c2ccco2)nc2oc3ccccc3c(=O)c2c1=O,15.1 µM
6,Cc1cc(C)c2nc(N3C(=O)C(O)=C(C(=O)c4ccco4)C3c3ccco3)sc2c1 (centres undefined),2.12 µM
7,CNC(=S)N/N=C/c1cn(Cc2ccc(C)cc2)c2ccccc12,5.33 µM
8,CCc1ccc(-c2ccc3nnc(SCC(N)=O)n3n2)cc1,1.66 µM
9,C=CCn1c(O)c(C(CC)=Nc2ccc(N(CC)CC)cc2)c(=O)[nH]c1=O,1.66 µM
10,COc1cc(/C=C2/SC(=S)N(Cc3ccccc3)C2=O)cc(Cl)c1O,2.58 µM
11,Cc1ccc(NC(=O)NCc2ccccn2)cc1Cl,> 15 µM (inactive)
12,O=[N+]([O-])c1cc(S(=O)(=O)Nc2cccc(Cl)c2)ccc1N=Nc1c(O)[nH]c2ccccc12,3.61 µM
13,N#C/C(=C(/O)CN1CCN(c2ccccc2F)CC1)c1nc(-c2ccccc2)cs1,12.2 µM
14,CCCCCCCCCC[N+](C)(C)CC/C=C1/c2ccccc2Sc2ccc(Cl)cc21,2.31 µM
15,CCc1ccc(N=C2NC(=O)/C(=C/c3cc(OC)c(O)c(OC)c3)S2)cc1,4.44 µM
16,COc1cc(C(=O)NC(=S)Nc2ccc(NC(=O)c3ccco3)cc2)cc(OC)c1OC,8.97 µM
17,COc1ccc2c(C)nc(Nc3nc(-c4ccccc4)cc(=O)[nH]3)nc2c1,2.75 µM
18,Oc1ccccc1/C=N/NC(=S)NC1CC2C=CC1C2 (centres undefined),5.69 µM
19,Cc1ccc(N=Nc2ccc(O)c(P(=O)(c3ccccc3)c3ccccc3)c2)cc1,3.36 µM
20,C=CCn1c(NC(=O)c2ccc(C)cc2)nc2ccccc21,9.75 µM
21,S=c1[nH]nc(-c2cccs2)n1/N=C/c1cn(-c2ccccc2)nc1-c1ccccc1,7.78 µM
22,O=[N+]([O-])c1ccc(NC(=S)NCCc2ccc(Cl)cc2)cc1,1.73 µM

row,SMILES,EC50
1,O=S(=O)(Nc1cccc2c1CCCC2)c1ccc(Cl)cc1,2.92 µM
2,COc1ccc(/C=N\NC(=O)c2cc(O)c(O)c(O)c2)cc1COc1ccc(C(=O)OCC(C)C)cc1,7.28 µM
3,O=C(Nc1ccc(Cl)c(Cl)c1)N1CC=C(c2ccccc2)CC1,8.08 µM
4,Cc1ccc(/C=C2/Sc3ccc(C(=O)N4CCC5(CC4)OCCO5)cc3NC2=O)cc1,5.88 µM
5,Oc1c(C(Nc2ccccn2)c2ccccn2)ccc2cccnc12 (centres undefined),10.7 µM
6,Cc1ccc(C)c(-c2nnc(NC(=O)COc3ccccc3)o2)c1,1.7 µM
7,CC(=O)Nc1ccc(C2C(=O)c3ccccc3C2=O)cc1,> 15 µM (inactive)
8,CCCC(=O)NC(c1ccc2c(c1)OCO2)c1cc(Cl)c2cccnc2c1O (centres undefined),1.17 µM
9,C=C(C)CNC(=S)NNC(=O)CCn1c2ccc(Cl)cc2c2cc(Cl)ccc21,2.31 µM
10,CN(C(=S)NC(=O)c1ccccc1)C1CCCCC1,> 15 µM (inactive)
11,COc1ccc(NC(=O)C(OC(=O)c2cnc(C)cn2)c2ccccc2)cc1Cl (centres undefined),11.7 µM
12,C/C(N)=C(/C#N)C(=O)CSc1nc2cc(Cl)ccc2c(=O)n1Cc1ccco1,8.74 µM
13,COc1ccc(CNC(=O)c2c(C)oc3c2C(=O)c2ccccc2C3=O)cc1,0.81 µM
14,CC1=NNC(=O)/C1=C\c1cn(-c2ccccc2)nc1-c1ccc(Cl)cc1,5.67 µM
15,Cc1cc(C)nc(NC(N)=NCCc2c[nH]c3ccccc23)n1,11.6 µM
16,CC(=O)NC(c1ccc(Cl)cc1Cl)c1ccc2cccnc2c1O (centres undefined),4.2 µM
17,O=C(c1cc(-c2ccccc2)n[nH]1)N1CCc2c([nH]c3ccccc23)C1c1ccccn1 (centres undefined),5.23 µM
18,O=c1[nH]c(NNC(=S)NC2CCCCC2)nc2c1C1(CCCC1)Cc1ccccc1-2,1.35 µM
19,COc1ccc(CC(=O)N/N=C/c2cc([N+](=O)[O-])cc(Br)c2O)cc1,4.91 µM
20,Cc1cccc(C)c1Nc1c(-c2ccccn2)nc2ccccn12,6.67 µM
21,CC(C)C[C@H](NC(=O)c1[nH]cnc1C(=O)N[C@H](C)c1ccccc1)C(=O)OC(C)(C)C,6.02 µM
22,COc1cnc(-c2ccccn2)nc1Sc1ccc(Cl)cc1,4.96 µM

row,SMILES,EC50
1,COc1ccc(Oc2nc(-c3ccccn3)ncc2OC)cc1,1.45 µM
2,O=C(NC(=S)NNC(=O)[C@H]1C[C@@H]1c1ccccc1)c1ccc(F)cc1,0.715 µM
3,Cc1cccc2sc(NNC(=O)c3cc(=O)c4ccccc4o3)nc12,0.42 µM
4,COc1cc(C(=O)NC(=S)Nc2ccc(Cc3ccncc3)cc2)cc(OC)c1OC,2.45 µM
5,CC(C)C1OC2c3cccc4cccc(c34)C2N1c1ccccc1 (centres undefined),2.57 µM
6,C/C(=N\NC(=S)NCC(C)(C)C)c1cc(F)cc(F)c1O,2.65 µM
7,CSc1ccc(/C=C/c2ccc3cccc(O)c3n2)cc1,1.97 µM
8,CC1=C/C(=N\NC(=S)NCCc2ccccc2)CC(C)(C)C1,2.58 µM
9,S=C1NC(C23CC4CC(CC(C4)C2)C3)=CC(c2ccc3c(c2)OCO3)N1 (centres undefined),6.76 µM
10,CC(C)Sc1cc(N2CCCC2)nc(-c2ccccc2)n1,11.2 µM
11,Fc1ccc2nc(Nc3nc4cc5c(cc4s3)OCO5)sc2c1,2.63 µM
12,O=C(COc1ccc(Cl)cc1)Nc1nnc(-c2ccc3c(c2)CCCC3)o1,0.369 µM
13,CCOC(=O)c1cnn(-c2nc(-c3ccccc3F)cs2)c1C(F)(F)F,10.9 µM
14,COc1ccccc1OCC(=O)NNC(=S)NC(=O)c1ccco1,2.39 µM
15,COCCn1c(N)c(C(=O)NS(=O)(=O)c2ccc(C)cc2)c(=O)[nH]c1=O,> 15 µM (inactive)
16,CC(C)(C)c1ccc(OCCCC(=O)NC2=NCCS2)cc1,3.87 µM
17,COc1cc([N+](=O)[O-])cc(/C=N/NC(=O)c2cncc(Br)c2)c1O,0.97 µM
18,CCOC(=O)c1csc(N/N=C2\CCCc3ccccc32)n1,11 µM
19,Cc1nn2c(NCc3ccccn3)cc(C(C)C)nc2c1-c1ccccc1,5.94 µM
20,Oc1ccc(CN2CCc3ccccc3C2)c2cccnc12,4.09 µM
21,O=C(Nc1nnc(-c2ccncc2)o1)c1ccc2ccccc2c1,5.02 µM
